Reference: patent US8653112B2, “Substituted pyrazoles as estrogen receptor ligands” (Karo Bio AB, priority 2009, dated 2014)

What follows are compounds tested against T1, human ERβ (ERβ-LBD) (Homo sapiens, UniProt Q92731) (assay: Binding assay 1: estrogen receptor binding assay (SPA, 3H-E2 displacement), ERβ). Details: displacement of 3H-E2, read-out: binding affinity to the estrogen receptor β-subtype, IC50.
T1 construct: ERβ (ERβ-LBD, pET-N-AT #1, aa 255-530); biotinylation tag (in vivo biotinylated, pBirA co-expression); made in house; host or cells: E. coli BL21 (DE3) pBirA
Procedure: Binding Assay 1: Estrogen Receptor Binding Assay
The estrogen receptor ligand binding assays are designed as scintillation proximity assays (SPA), employing the use of tritiated estradiol (^3H-E2) and recombinant expressed biotinylated estrogen receptor binding domains. The binding domains of human ERα (ERα-LBD, pET-N-AT #1, aa 301-595) and ERβ (ERβ-LBD, pET-N-AT #1, aa 255-530) proteins are produced in E. coli ((BL21, (DE3), pBirA)) at 22 C in 2×LB medium supplemented with 50 uM biotin. After 3 h of IPTG induction (0.55 mM), cells are harvested by centrifugation at 7300×g for 15 min and cell pellets stored frozen in −20C. Extraction of ERα and ERβ are performed using 5 g of cells suspended in 50 mL of extraction buffer (50 mM Tris, pH 8.0, 100 mM KCl, 4 mM EDTA, 4 mM DDT and 0.1 mM PMSF). The cell suspension is run twice through a Microfluidizer M-110L (Microfluidics) and centrifuged at 15,000×g for 60 min. The supernatant is aliquoted and stored in −70C.
Dilute ERαLBD or ERβ-LBD extracts in assay buffer (18 mM K2HPO4, 2 mM KH2PO4, 20 mM NasMoO4, 1 mM EDTA, 1 mM TCEP) 1:676 and 1:517 for alpha and beta respectively. The diluted receptor concentrations should be 900 fmol/L. Preincubate the extracts with streptavidin coated polyvinyltoluene SPA beads (RPNQ0007, GE Healthcare) at a concentration of 0.43 mg/mL for 1 hr at room temperature.
Test compounds are evaluated over a range of concentrations from 157 μM to 37.5 pM. The test compound stock solutions should be made in 100% DMSO at 5× of the final concentration desired for testing in the assay. The amount of DMSO in the test wells of the 384 well plate will be 20%. Add 18 μl aliquots of test compounds to the assay plates followed by 35 μl of the preincubated receptor/SPA bead mix and finally add 35 μl of 3 nM ^3H-E2. Cover the plates with a plastic sealer, centrifuge for 1 minute at 1000 rpm and equilibrate over night on a shaker at room temperature. The following morning, centrifuge the plates 5 minutes at 2000 rpm and measure on a plate scintillation counter e.g. a PerkinElmer Microbeta 1450 Trilux.
For compounds able to displace 3[H]-E2 from the receptor an IC50-value (the concentration required to inhibit 50% of the binding of 3[H]-E2) is determined by a non-linear four parameter logistic model; b=((bmax−bmin)/(1+(1/IC50)S))+bmin I is added concentration of binding inhibitor, IC50 is the concentration of inhibitor at half maximal binding and S is a slope factor. The Microbeta-instrument generates the mean cpm (counts per minute) value/minute and corrects for individual variations between the detectors thus generating corrected cpm values.

T1 sequence (Q92731 255-530): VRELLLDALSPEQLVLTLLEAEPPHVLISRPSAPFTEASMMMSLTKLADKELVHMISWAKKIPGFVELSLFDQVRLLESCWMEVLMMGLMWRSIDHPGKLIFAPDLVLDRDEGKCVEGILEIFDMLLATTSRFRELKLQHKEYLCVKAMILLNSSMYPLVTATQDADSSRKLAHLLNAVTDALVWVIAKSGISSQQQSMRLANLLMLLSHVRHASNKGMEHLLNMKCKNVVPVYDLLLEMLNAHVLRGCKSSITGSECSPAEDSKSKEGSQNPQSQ

IC50, 1 to 100 nM:
Cc1noc(C)c1-c1c(-c2ccc(O)cc2)nn(C)c1C=NO (single isomer, unassigned) [Example 12, 4-(3,5-dimethylisoxazol-4-yl)-3-(4-hydroxyphenyl)-1-methyl-1H-pyrazole-5-carbaldehyde oxime]
Cc1noc(C)c1-c1c(C=NO)c(C(C)C)nn1-c1ccc(O)cc1 (single isomer, unassigned) [Example 18, 5-(3,5-dimethylisoxazol-4-yl)-1-(4-hydroxyphenyl)-3-isopropyl-1H-pyrazole-4-carbaldehyde oxime]
CCc1nn(-c2ccc(O)cc2F)c(-c2c(C)noc2C)c1C=NO (single isomer, unassigned) [Example 27, 5-(3,5-dimethylisoxazol-4-yl)-3-ethyl-1-(2-fluoro-4-hydroxyphenyl)-1H-pyrazole-4-carbaldehyde oxime]
Cn1nc(-c2ccc(O)cc2)c(-c2c(F)cccc2F)c1C=NO (single isomer, unassigned) [Example 44, 4-(2,6-difluorophenyl)-3-(4-hydroxyphenyl)-1-methyl-1H-pyrazole-5-carbaldehyde oxime]
Cn1nc(-c2ccc(O)cc2)c(-c2c(Cl)cccc2Cl)c1C=NO (single isomer, unassigned) [Example 45, 4-(2,6-dichlorophenyl)-3-(4-hydroxyphenyl)-1-methyl-1H-pyrazole-5-carbaldehyde oxime]
Cc1noc(C)c1-c1c(-c2ccc(O)cc2F)nn(C)c1C=NO (single isomer, unassigned) [Example 48, 4-(3,5-dimethylisoxazol-4-yl)-3-(2-fluoro-4-hydroxyphenyl)-1-methyl-1H-pyrazole-5-carbaldehyde oxime]
Cc1cc(O)ccc1-c1nn(C)c(/C=N/O)c1-c1c(C)noc1C (single isomer, unassigned) [Example 63, (E)-4-(3,5-dimethylisoxazol-4-yl)-3-(4-hydroxy-2-methylphenyl)-1-methyl-1H-pyrazole-5-carbaldehyde oxime]
